# Biological target: T1, human CK2a2 (CSNK2a2) (Homo sapiens, UniProt P19784)
# T1 construct: Recombinant human CK2a2 (CSNK2a2) (full length); GST (N); purchased SignalChem C71-10G; host or cells: Sf9 insect cells
# Assay: CK2a2 (CSNK2a2) enzyme assay (ADP-Glo)
# Assay type: biochemical
# Settings: ADP-Glo, ATP 15 μM; read-out: CK2 alpha 2 IC50
# Protocol: 8. CK2a2 (CSNK2a2) Enzyme Assay
# The ability of compounds to inhibit human CK2a2 (CSNK2a2) kinase activities was determined using a commercially available ADP-Glo™ Kinase Assay kit (Promega, Cat #V9102) according to the manufacturer's protocol.
# Recombinant human CK2a2 (CSNK2a2) (full length) (expressed in Sf9 insect cells with an N-terminal GST tag) was purchased from SignalChem (Cat #C71-10G). CK2 substrate (sequence: […]) was purchased from SignalChem (Cat #C08-58). This assay, run in a 384-well plate format, is a generic method for measuring kinase activities using an ADP-Glo Kinase Assay Kit. The basic assay procedure involves two steps: (1) Enzymatic step: inhibitors are incubated with the kinase and then ATP (included in the ADP-Glo Kinase Assay Kit) and the MBP protein are added to start the enzymatic reaction; (2) Detection step: after the kinase reaction, first ADP-Glo™ Reagent is added to terminate the kinase reaction and deplete the remaining ATP. Second, the Kinase Detection Reagent is added to simultaneously convert ADP to ATP and allow the newly synthesized ATP to be measured using a luciferase/luciferin reaction. The light generated is measured using a luminometer.
# Briefly, CK2a2 (CSNK2a2) (7 nM) in the enzymatic buffer solutions (40 mM Tris, pH 7.5, 20 mM MgCl2, 0.1 mg/ml BSA, 50 μM DTT) were mixed with various concentrations of inhibitors (dissolved in 100% DMSO). These solutions were incubated for 30 minutes at 25° C., and subsequently a mixture of substrate peptide and ATP was added with the final peptide and ATP concentrations at 0.04 mg/ml and 15 μM, respectively. The final reaction mixture of enzyme-substrate-ATP-compound was incubated for 90 minutes at 25° C.
# Afterwards ADP-Glo™ Reagent was added and the mixture was incubated at 25° C. for 60 minutes. Then Kinase Detection Reagent was added, and the final mixture was incubated at 25° C. for 60 minutes. The luminescence signal of the final solution was measured on an Envision instrument (PerkinElmer). The percent (%) inhibition at each concentration of a compound is calculated relative to the luminescence signal in the Max and Min control wells contained within each assay plate. […] The concentrations and percent inhibition values for a test compound are plotted and the concentration of the compound required to achieve 50% inhibition (IC50) is determined with a four-parameter logistic dose response equation.
# T1 sequence (P19784 whole entry): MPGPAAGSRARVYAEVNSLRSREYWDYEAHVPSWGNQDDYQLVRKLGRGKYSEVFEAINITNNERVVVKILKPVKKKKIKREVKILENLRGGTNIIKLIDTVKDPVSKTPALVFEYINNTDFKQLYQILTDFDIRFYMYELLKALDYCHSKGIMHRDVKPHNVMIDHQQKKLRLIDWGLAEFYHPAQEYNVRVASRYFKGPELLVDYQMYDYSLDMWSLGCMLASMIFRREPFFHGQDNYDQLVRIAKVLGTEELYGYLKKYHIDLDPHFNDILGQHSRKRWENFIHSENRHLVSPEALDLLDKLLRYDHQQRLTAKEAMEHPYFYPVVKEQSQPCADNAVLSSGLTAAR
row,SMILES,IC50
1,"CN(C1=N/C(=C\c2ccc3c(c2)OCO3)C(=O)N1)c1ccccc1 [Example 1, (Z)-5-(benzo[d][1,3]dioxol-5-ylmethylene)-2-(methyl(phenyl)amino)-3,5-dihydro-4H-imidazol-4-one]",0.1 to 1 µM
2,"O=C1NC(Nc2ccccc2)=N/C1=C\c1ccc2ncsc2c1 [Example 6, (Z)-5-(benzo[d]thiazol-6-ylmethylene)-2-(phenylamino)-3,5-dihydro-4H-imidazol-4-one]",< 0.1 µM
3,"CN(C1=N/C(=C\c2ccc3ncsc3c2)C(=O)N1)c1ccccc1 [Example 7, (Z)-5-(benzo[d]thiazol-6-ylmethylene)-2-(methyl(phenyl)amino)-3,5-dihydro-4H-imidazol-4-one]",0.1 to 1 µM
4,"CN(CC1CC1)C1=N/C(=C\c2ccc3c(c2)OCO3)C(=O)N1 [Example 11, (Z)-5-(benzo[d][1,3]dioxol-5-ylmethylene)-2-((cyclopropylmethyl)(methyl)amino)-3,5-dihydro-4H-imidazol-4-one]",0.1 to 1 µM
5,"O=C1NC(N(CCO)c2ccccc2)=N/C1=C\c1ccc2c(c1)OCO2 [Example 13, (Z)-5-(benzo[d][1,3]dioxol-5-ylmethylene)-2-((2-hydroxyethyl)(phenyl)amino)-3,5-dihydro-4H-imidazol-4-one]",0.1 to 1 µM
6,"COc1ccccc1N(C)C1=N/C(=C\c2ccc3c(c2)OCO3)C(=O)N1 [Example 21, (Z)-5-(benzo[d][1,3]dioxol-5-ylmethylene)-2-((2-methoxyphenyl)(methyl)amino)-3,5-dihydro-4H-imidazol-4-one]",1 to 10 µM
7,"O=C1NC(N(Cc2ccccc2)c2ccccc2)=N/C1=C\c1ccc2c(c1)OCO2 [Example 22, (Z)-5-(benzo[d][1,3]dioxol-5-ylmethylene)-2-(benzyl(phenyl)amino)-3,5-dihydro-4H-imidazol-4-one]",> 10 µM
8,"CN(Cc1ccccc1)C1=N/C(=C\c2ccc3c(c2)OCO3)C(=O)N1 [Example 23, (Z)-5-(benzo[d][1,3]dioxol-5-ylmethylene)-2-(benzyl(methyl)amino)-3,5-dihydro-4H-imidazol-4-one]",> 10 µM
9,"CN(C1=N/C(=C\c2ccc3c(c2)OCO3)C(=O)N1)c1ccc(N)cc1 [Example 37, (Z)-2-((4-aminophenyl)(methyl)amino)-5-(benzo[d][1,3]dioxol-5-ylmethylene)-3,5-dihydro-4H-imidazol-4-one]",0.1 to 1 µM
10,"COc1ccc(N(C)C2=N/C(=C\c3ccc4ncsc4c3)C(=O)N2)cc1 [Example 38, (Z)-5-(benzo[d]thiazol-6-ylmethylene)-2-((4-methoxyphenyl)(methyl)amino)-3,5-dihydro-4H-imidazol-4-one]",0.1 to 1 µM
11,"O=C1NC(Nc2ccc(Cl)cc2)=N/C1=C\c1ccc2ncsc2c1 [Example 40, (Z)-5-(benzo[d]thiazol-6-ylmethylene)-2-((4-chlorophenyl)amino)-3,5-dihydro-4H-imidazol-4-one]",> 10 µM
12,"O=C1/C(=C/c2ccc3ncsc3c2)N=C(N(Cc2ccccc2)c2ccccc2)N1Cc1ccccc1 [Example 42, (Z)-5-(benzo[d]thiazol-6-ylmethylene)-3-benzyl-2-(benzyl(phenyl)amino)-3,5-dihydro-4H-imidazol-4-one]",> 10 µM
13,"CN(C1=N/C(=C\c2ccc3ncsc3c2)C(=O)N1)c1ccc(N)cc1 [Example 44, (Z)-2-((4-aminophenyl)(methyl)amino)-5-(benzo[d]thiazol-6-ylmethylene)-3,5-dihydro-4H-imidazol-4-one]",0.1 to 1 µM
14,"CC(C)NC1=N/C(=C\c2ccc3ncsc3c2)C(=O)N1C [Example 45, (Z)-5-(benzo[d]thiazol-6-ylmethylene)-2-(isopropylamino)-3-methyl-3,5-dihydro-4H-imidazol-4-one]",1 to 10 µM
15,"Cn1cnc2ccc(/C=C3\N=C(Nc4ccccc4)NC3=O)cc21 [Example 46, (Z)-5-((1-methyl-1H-benzo[d]imidazol-6-yl)methylene)-2-(phenylamino)-3,5-dihydro-4H-imidazol-4-one]",< 0.1 µM
16,"O=C1NC(Nc2ccc3ncsc3c2)=N/C1=C\c1ccc2c(c1)OCO2 [Example 47, (Z)-5-(benzo[d][1,3]dioxol-5-ylmethylene)-2-(benzo[d]thiazol-6-ylamino)-3,5-dihydro-4H-imidazol-4-one]",> 10 µM
17,"O=C1NC(Nc2ccc3ncsc3c2)=N/C1=C\c1ccc2ncsc2c1 [Example 48, (Z)-2-(benzo[d]thiazol-6-ylamino)-5-(benzo[d]thiazol-6-ylmethylene)-3,5-dihydro-4H-imidazol-4-one]",< 0.1 µM
18,"O=C1NC(Nc2ccccc2)=N/C1=C\c1ccc2occc2c1 [Example 52, (Z)-5-(benzofuran-5-ylmethylene)-2-(phenylamino)-3,5-dihydro-4H-imidazol-4-one]",> 10 µM
19,"O=C1NC(Nc2ccccc2)=N/C1=C\c1ccc2ncccc2c1 [Example 53, (Z)-2-(phenylamino)-5-(quinolin-6-ylmethylene)-3,5-dihydro-4H-imidazol-4-one]",> 10 µM
20,"CN(C1=N/C(=C\c2ccc3c(c2)OCO3)C(=O)N1)c1ccc2ncsc2c1 [Example 70, (Z)-5-(benzo[d][1,3]dioxol-5-ylmethylene)-2-(benzo[d]thiazol-6-yl(methyl)amino)-3,5-dihydro-4H-imidazol-4-one]",0.1 to 1 µM
21,"O=C1NC(Nc2ccc3nccnc3c2)=N/C1=C\c1ccc2ncsc2c1 [Example 82, (Z)-5-(benzo[d]thiazol-6-ylmethylene)-2-(quinoxalin-6-ylamino)-3,5-dihydro-4H-imidazol-4-one]",< 0.1 µM
22,"CN(C1=N/C(=C\c2ccc3ncsc3c2)C(=O)N1)c1ccc2ncsc2c1 [Example 83, (Z)-2-(benzo[d]thiazol-6-yl(methyl)amino)-5-(benzo[d]thiazol-6-ylmethylene)-3,5-dihydro-4H-imidazol-4-one]",0.1 to 1 µM
23,"CN(C1=N/C(=C\c2ccc3c(c2)OCCO3)C(=O)N1)c1ccc2ncsc2c1 [Example 84, (Z)-2-(benzo[d]thiazol-6-yl(methyl)amino)-5-((2,3-dihydrobenzo[b][1,4]dioxin-6-yl)methylene)-3,5-dihydro-4H-imidazol-4-one]",0.1 to 1 µM
24,"NC1=N/C(=C\c2ccc3ncsc3c2)C(=O)N1 [Example 103, (Z)-2-amino-5-(benzo[d]thiazol-6-ylmethylene)-3,5-dihydro-4H-imidazol-4-one]",0.1 to 1 µM
